# Test system: 293T cells (wild type or PPTC7 knockout)
# Test: MitoTox screen: DI-SPA proteome quantification of toxin-treated cells
# Assay type: cell-based, human
# Details: 6-hour compound treatments, DMEM or HPLM
# Procedure: Wild type or PPTC7 knockout (KO) cells were grown in either standard or modified media, DMEM or HPLM (Cantor et al., Cell, 169, 258-272.e17 (2017)), respectively, and treated in triplicate with one of nine mitochondrial toxins or two controls for a total 132 samples. These conditions were chosen because of their known effects on metabolism and mitochondria, which were hypothesized to induce changes in proteins and thus provide a suitable testbed for DI-SPA. Again, a peptide discovery experiment (like FIG. 7) was first performed to identify peptides for subsequent targeted quantification experiments, in which 1,384 peptides were identified (peptide-level FDR=0.93%) from 451 proteins (protein-level FDR=2.8%). Next, a quantitative targeted DI-SPA assay was generated to expeditiously monitor the most intense peptide from each of the 451 proteins. This method was used to analyze all 132 samples, generating 132 proteotypes and requiring only 120 seconds of MS data collection per sample. A total of 341 out of 451 protein targets were quantified across all 132 samples in only 4.4 hours of total MS data acquisition, which corresponds to over 45,000 proteins quantified at a rate of nearly three proteins per second (FIG. 4, panel B).
# MitoTox Experiment—Cell Culture. 293T cells were purchased from ATCC (#CRL-3216) and maintained in DMEM (4.5 g/L glucose, 4 mM glutamine, no pyruvate—Thermo #11965092) supplemented with 10% fetal bovine serum (FBS) and 1× penicillin/streptomycin (100 U/mL final [c]). Human Plasma-Like Medium (HPLM) was supplemented with 10% dialyzed FBS (Thermo #26400036) and 1× penicillin/streptomycin (100 U/mL final [c]). For heavy labeling, 293T cells were labeled using the DMEM-based SILAC protein quantitation kit (Thermo #A33972). Briefly, cells were grown for at least 5 passages SILAC-compatible DMEM supplemented with 10% dialyzed FBS, ^13C ^15N2 L-lysine-2HCl and ^13C6 ^15N4 L-arginine HCl, and 1× penicillin/streptomycin. SILAC labeling was confirmed through mass spectrometry analysis and ratios of light/heavy cells were titrated based on analysis of median ratios observed in the controls. All cells were grown in a tissue culture grade incubator held at 37° C. supplemented with 5% CO2. Cells were verified as mycoplasma negative via the e-Myco Mycoplasma PCR Detection Kit (Bulldog Bio #25233).
# MitoTox screen conditions. 293T or PPTC7 knockout 293T cells were split and plated in 24 well plates at 7.5×10^4 cells per well. Cells were allowed to adhere overnight, and media was replaced with fresh DMEM or HPLM for a total of 24 hours prior to collection of cells. Compound treatments were grouped into 6-hour or 24-hour incubations, with 6-hour compound treatments occurring in the last 6 hours of the 24-hour media change, and 24-hour compound treatments occurring for the entire 24 hours of media treatment. Compounds used for 6 hours include antimycin A (5 μM final [c], Sigma #A8674), rotenone (5 μM final [c], Sigma #R8875), oligomycin (2.5 μM final [c], Sigma #04876), CCCP (10 μM final [c], Sigma #C2759), valinomycin (1 μM final [c], Sigma #V0627) and CDDO (2.5 μM final [c], Cayman Chemical #11883)). Compounds used for 24 hours include doxycycline (10 μg/ml final [c], VWR #75844-668) and Deferoxamine (DFO, 100 μM final [c], Sigma #D9533). One compound, 4-nitrobenzoate (4-NB, 1 mM final [c], Sigma #461091), requires 6+ days for efficacy (Forsman et al., Nature Chemical Biology, 6, 515-517 (2010)), and thus cells were treated with this compound for 5 days before being split to 7.5×10^4 cells per well and grouped with the 24 hour incubations. Control, untreated 293T cells were split and harvested with both the 6-hour and 24-hour compound treatment sets. All conditions were plated and collected in 3 replicate wells. […]
row,Molecule,proteome perturbation (UMAP of proteotypes) in relation to 6 h controls
1,N#CC(C#N)=NNc1cccc(Cl)c1 [CCCP],produced more (and comparable) proteome rearrangement
2,CC1(C)CC[C@]2(C(=O)O)CC[C@]3(C)[C@H](C(=O)C=C4[C@@]5(C)C=C(C#N)C(=O)C(C)(C)[C@@H]5CC[C@]43C)[C@@H]2C1 [CDDO],media dependent
3,"CC(C)[C@@H]1NC(=O)[C@H](C)OC(=O)[C@@H](C(C)C)NC(=O)[C@@H](C(C)C)OC(=O)[C@H](C(C)C)NC(=O)[C@H](C)OC(=O)[C@@H](C(C)C)NC(=O)[C@@H](C(C)C)OC(=O)[C@H](C(C)C)NC(=O)[C@H](C)OC(=O)[C@@H](C(C)C)NC(=O)[C@@H](C(C)C)OC1=O [Valinomycin, valinomycin]",induced the most profound proteome perturbation relative to controls
4,CC[C@H]1/C=C/C=C/C[C@@H](C)[C@H](O)[C@@](C)(O)C(=O)[C@@H](C)[C@H](O)[C@@H](C)C(=O)[C@@H](C)[C@H](O)[C@@H](C)/C=C/C(=O)O[C@@H]2[C@H](C)[C@H](CC1)O[C@]1(CC[C@H](C)[C@H](C[C@@H](C)O)O1)[C@H]2C [oligomycin],produced more (and comparable) proteome rearrangement
5,C=C(C)[C@H]1Cc2c(ccc3c2O[C@@H]2COc4cc(OC)c(OC)cc4[C@@H]2C3=O)O1 [rotenone],most similar
6,antimycin A,most similar

# — patent US12540922B2, “Quantitative shotgun proteome, lipidome, and metabolome analysis by direct infusion” (Wisconsin Alumni Research Foundation, priority 2021, dated 2026)
